Measured values from patent US5081122A, “Antiglaucoma compositions containing 4-arylcarbonyl-1-(4-morpholinyl)-lower-alkyl)-1H-indoles and method of use thereof” (Sterling Drug Inc., priority 1990, dated 1992).
Where a name gives a salt, the structure may show the parent alone.

Assays:
cannabinoid receptor = target: T1, cannabinoid receptor (Mus musculus, UniProt P47746); test: mouse vas deferens (MVD) test, inhibition of contractions in vitro; format: cell-based; conditions: considered active at IC50 of 5.0 μM or less, read-out: MVD IC50 (inhibitory concentration which produces 50% of the maximum response)
T1 construct: mouse vasa deferentia (MVD) preparation in vitro; from tissue; host or cells: mouse vas deferens
Source text: (§1) Med. Assoc. 217, 1392 (1971)]. […] Opth. 7, 921-923 (1975); Green and Pederson, Effect of delta-9 Tetrahydrocannabinol on Aqueous Dynamics and Ciliary Body Permeability in the Rabbit Eye., Exptl. Eye Research 15, 499-507 (1973); Colasanti, Craig and Allara, Intraocular Pressure, Ocular Toxicity and Neurotoxicity after Administration of Cannabinol or Cannabigerol, Exptl. Eye Research 39, 252-259 (1984)]. Similarly, synthetic cannabinoids also reduce intraocular pressure [Green, Symunds, Oliver and Elijah, Intraocular Pressure Following Systemic Administration of Cannabinoids., Curr. Eye Research 2, 247-253 (1982); Tiedeman, Shields, Weber, Crow, Coccetto, Harris and Howes, Ophthalmology, 88, 270-277 (1981); Colasanti et al., supra]. […] 34, 605-613 (1988)]. Natural and synthetic cannabinoids and representative examples of the compounds of the present invention, bind to CP 55940 binding sites. […] It is believed that agonist activity at the cannabinoid receptor mediates the anti-glaucoma actions of cannabinoids, and that agonist activity at this receptor correlates with ocular pressure lowering actions in man.
The 3-R3 -4-arylcarbonyl-1-[(4-morpholinyl)-lower-alkyl]-1H-indoles of formula I were tested in the mouse vas deferens test and the CP 55490 binding assay. The results, expressed as the IC50 in μM (the inhibitory concentration which produces 50% of the maximum response), are given in the following table, the compounds being identified by the example number above where their preparations are described.

[1] = target: T2, cannabinoid receptor binding sites (CP 55940 binding sites) (Rattus norvegicus, UniProt P20272); test: CP 55940 binding assay (given "CP 55490 [sic] binding assay" in the source)
T2 construct: from tissue; host or cells: rat brain membranes (inferred from the cited Devane et al. 1988)
Source text: as §1
The 3-R3 -4-arylcarbonyl-1-[(4-morpholinyl)-lower-alkyl]-1H-indoles of formula I were tested in the mouse vas deferens test and the CP 55490 binding assay. […]

intraocular pressure = conditions: topical application or systemic injection; literature; cited from earlier work
[2] = target: T2, cannabinoid receptor binding sites (CP 55940 binding sites); conditions: result in words, literature (Devane et al.), radio-labelled CP 55940; natural and synthetic cannabinoids; cited from earlier work

T1 sequence (P47746 whole entry): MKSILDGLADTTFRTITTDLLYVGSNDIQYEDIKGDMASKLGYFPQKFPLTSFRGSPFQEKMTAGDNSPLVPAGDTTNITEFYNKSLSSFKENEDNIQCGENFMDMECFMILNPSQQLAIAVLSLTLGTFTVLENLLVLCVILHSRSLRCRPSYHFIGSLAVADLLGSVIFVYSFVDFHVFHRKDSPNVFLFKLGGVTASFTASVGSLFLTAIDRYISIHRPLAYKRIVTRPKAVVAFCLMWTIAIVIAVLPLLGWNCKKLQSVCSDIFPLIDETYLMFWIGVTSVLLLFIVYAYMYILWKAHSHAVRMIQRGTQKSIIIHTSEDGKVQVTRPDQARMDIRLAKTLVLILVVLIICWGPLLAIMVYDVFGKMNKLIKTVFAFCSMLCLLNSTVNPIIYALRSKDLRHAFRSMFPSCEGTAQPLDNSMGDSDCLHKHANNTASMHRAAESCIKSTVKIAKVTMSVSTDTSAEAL
T2 sequence (P20272 whole entry): as the sequence (P47746 whole entry) above, with D95E counted along it

SMILES | IC50 (cannabinoid receptor) | also measured
O=C(c1ccc2ccccc2c1)c1cccc2c1ccn2CCN1CCOCC1 [Example 1D, 4-(2-naphthylcarbonyl)-1-[2-(4-morpholinyl)ethyl]-1H-indolehydrochloride] | 163 nM | IC50 [1]: 363 nM
CCCCCc1cc(O)c2c(c1)OC(C)(C)C1CCC(C)=CC21 (single isomer, unassigned) [delta-9 tetrahydrocannabinol] |  | intraocular pressure (intraocular pressure): reduces intraocular pressure
CCCCCCC(C)(C)c1ccc([C@@H]2C[C@H](O)CC[C@H]2CCCO)c(O)c1 [CP 55940, 4-(1,1-dimethylheptyl)-2,3'-dihydroxy-6'alpha-(3-hydroxypropyl)-1',2',3',4',5',6'-hexahydrobiphenyl] |  | binding to CP 55940 binding sites / cannabinoid receptor [2]: binds in a specific and saturable manner
COc1ccc(C(=O)c2cccc3c2ccn3CCN2CCOCC2)cc1 [Example 1A, 4-(4-methoxybenzoyl)-1-[2-(4-morpholinyl)ethyl]-1H-indole hydrochloride] | 76 nM | IC50 [1]: 444 nM
O=C(c1cccc2ccccc12)c1cccc2c1ccn2CCN1CCOCC1 [Example 1C, 1-[2-(4-morpholinyl)ethyl]-4-(1-naphthylcarbonyl)-1H-indole p-toluenesulfonate hydrate 3:1] | 3 nM | 
COc1ccc(C(=O)c2cccc3c2ccn3CCCN2CCOCC2)cc1 [Example 1B, 4-(4-methoxybenzoyl)-1-[3-(4-morpholinyl)propyl]-1H-indole hydrochloride] | 33 nM | 
COc1ccc(C(=O)c2cccc3c2c(C)cn3CCN2CCOCC2)cc1 [Example 1E, 4-(4-methoxybenzoyl)-3-methyl-1-[2-(4-morpholinyl)ethyl)-1H-indole hydrochloride] | 5000 nM | 
